Results as given in US20120088807A1, “INTERLACED METHOD FOR TREATING CANCER OR A PRECANCEROUS CONDITION” (TAU THERAPEUTICS LLC, priority 2009, published 2012).

Tests used:
A10 cells = test: Cell cycle analysis using flow cytometry and BUdR staining; assay type: cell-based
Protocol: Cell cycle analysis was performed using flow cytometry and BUdR staining. In FIG. 3, “Con” represents untreated, control cells. All other cell cultures were treated with nocodazole, which interferes with microtubule polymerization and blocks the cell cycle during M phase. […] Because A10 cells reside primarily in the cell cycle checkpoint between G0 and G1 (See “Con” in FIG. 3), evaluating the possibility that a pharmacologic agent inhibits transit out of that phase is not as straightforward as determining blockade at other cell cycle checkpoints. Therefore, cell cultures were treated for 24 hours with T channel calcium channel blockers mibefradil (mib), nickel (Ni) or TTL-1177 (a proprietary compound owned by the assignee Tau Therapeutics), before adding nocodazole. Absent an effect on the T channel blockers, cells would be locked at the cell cycle checkpoint between G2 and M by nocodazole as happened with cells treated with it alone.

D54 tumors [1] = test: Interlaced therapy, human glioblastoma murine xenograft model, two cytotoxin rounds (Example 5); assay type: in vivo, Mice; conditions: over 30 days; subcutaneous D54; temozolamide 25% then 10% of LD10; mibefradil 40 then 35 mg/kg p.o. q.i.d.
Protocol: Further studies of interlaced therapy for human glioblastoma in a murine xenograft model using the D54 cell line were conducted. Mice bearing subcutaneous implants of D54 tumors, which were allowed to become established, were treated with mibefradil at 40 mg/kg p.o. q.i.d. for 7 days or left untreated. On day seven, all animals received the S phase cytotoxin temozolamide at a dose of 25% of the LD10 over five days. Following two days of no treatment, mibefradil was re-started at a dose of 35 mg/kg p.o. q.i.d. in the group of mice which were originally treated with mibefradil.

D54 tumors [2] = test: Interlaced therapy, human glioblastoma murine xenograft model (Example 4); assay type: in vivo, Mice
Protocol: Studies of interlaced therapy for human glioblastoma in a murine xenograft model using the D54 cell line were conducted. Mice bearing subcutaneous implants of D54 tumors, which were allowed to become established at a volume of about 100 mm^3, were treated with mibefradil at 40 mg/kg p.o. q.i.d. for 7 days or left untreated. On day seven, all animals received the S phase cytotoxin temozolamide at a dose of 25% of the LD10 over five days. Following two days of no treatment, mibefradil was re-started at a dose of 35 mg/kg p.o. q.i.d. in the group of mice which were originally treated with mibefradil. On day 20, the mean tumor volume in the temozolamide only group of mice was 173 mm^3 as compared to the temozolamide plus mibefradil group of mice, whose mean tumor volume was 102 mm^3 (p=0.0485; n=10/group; Student's pooled, two tailed t-test). A pooled, two tailed. Student's t-test over all seven tumor volume measurements yielded p=0.0329. There were no animals that were euthanized in either group due to tumor size. The mean volume in the control group, which received no intervention, was 1214 mm^3 with three animals euthanized because of tumor size.

PANC 219 tumor = assay type: in vivo; conditions: mibefradil 65 mg/kg p.o. b.i.d.
Protocol: Pancreatic cancers resected from patients were immediately transplanted into the flanks of nude mice and maintained by serial, in vivo passage. Transplanted tumors were implanted at a volume of about 100 mm^3 and allowed to grow to 200 to 300 mm^3 before initiation of treatment. Mice bearing the PANC 219 tumor were either left untreated or treated with mibefradil at 65 mg/kg p.o. b.i.d. (n=10 in each group). Tumor growth was normalized to the size measured at the start of treatment.

[3] = A10 cells treated 24 hours with T channel blocker before adding nocodazole

COC(=O)Nc1nc2ccc(C(=O)c3cccs3)cc2[nH]1 [nocodazole]
effect on cell cycle transit (A10 cells; A10 cells, nocodazole alone): blocked cell cycle transit through M phase

Cn1nnc2c(C(N)=O)ncn2c1=O [temozolamide]
mean tumor volume (D54 tumors [1]): 156±65 mm^3
mean tumor volume (D54 tumors [2]; day 20, subcutaneous D54, temozolamide 25% of LD10 over five days, mibefradil 40 then 35 mg/kg p.o. q.i.d., n=10/group): 173 mm^3
animals euthanized due to tumor size (D54 tumors [2]; subcutaneous D54, n=10/group): no animals

COCC(=O)O[C@]1(CCN(C)CCCc2nc3ccccc3[nH]2)CCc2cc(F)ccc2[C@@H]1C(C)C [mibefradil]
tumor regression (PANC 219 tumor; PANC 219 tumor in nude mice): did not cause tumor regression
tumor growth (PANC 219 tumor; PANC 219 tumor, growth normalized to size at start of treatment): controlled tumor growth
deaths in treatment group (PANC 219 tumor; n=10, day 9): One mouse in the treatment group died
effect on cell cycle transit (A10 cells; [3]): arrested cells at the cell cycle checkpoint between G0 and G1

[Ni] [nickel]
effect on cell cycle transit (A10 cells; [3]): arrested cells at the cell cycle checkpoint between G0 and G1
